Data reported in US20260160767A1, “Biosynthetic Method for Preparing 10-Hydroxy-2-Decenoic Acid and Use Thereof in Skin Care” (SHANDONG FREDA BIOTECH CO., LTD., priority 2023, published 2026).

Legend:
Assay type in all cases: cell-based
3D epidermal model = assay: Regulation of ceramides and fatty acids in a 3D epidermal model (stratum corneum lipid extraction, LC-MS); settings: 10-HDA 0.0625 mg/mL; relative to untreated control system
Description: The model was transferred to a 6-well plate pre-filled with 3.7 mL/well model culture medium and incubated for 24 hours in a CO2 incubator (37° C., 5% CO2). The positive control (PC) group contained WY-14643 (pirinixic acid) at a final concentration of 50 μM. In the sample group, 10-HDA was at a final concentration of 0.0625 mg/mL. After incubation, each model was cut into two halves. One half was used for protein measurement, and the other half was used for lipid extraction and placed in a 6-well plate (the model was stored at −80° C.). For lipid extraction, 1 mL trypsin was added to each well of the 6-well plate and incubated for 30 minutes in an incubator. Water was added on the lid of the 6-well plate. The model and the nylon membrane were separated with tweezers, and viscous material on the stratum corneum was peeled off with tweezers. Water on the stratum corneum was blotted dry with paper, and the stratum corneum was placed into a glass tube. 1 mL chloroform:methanol mixture (chloroform:methanol=1:1) was added to each glass tube. The tube was ultrasonicated in an ice bath for 30 minutes. The supernatant was transferred to a vial and evaporated to dryness. To the dried vial, 160 μL acetonitrile: isopropanol mixture (acetonitrile:isopropanol=1:1) was added, and 20 μL ceramide C12 internal standard solution was added (the ceramide internal standard solution having a concentration of 100 μg/mL, with the internal standard solvent being a 1:1 mixture of acetonitrile and isopropanol). The mixture was ultrasonicated for 10 minutes and shaken for dissolution for 30 minutes, transferred to a sample centrifuge tube, centrifuged at 12,000 rpm for 10 minutes, and 100 μL of the upper layer was transferred into a 250 μL insert. LC-MS detection was performed using a Thermo Fisher Orbitrap Q Exactive™ quadrupole-Orbitrap high-resolution mass spectrometer.
Mass spectrometry conditions were as follows: mass spectrometry analysis was performed using a quadrupole-Orbitrap mass spectrometer equipped with a heated electrospray ionization source. Ion source voltages for positive and negative modes were 3.7 kV and 3.5 kV, respectively. Capillary heating temperature was 320° C. Sheath gas pressure was 30 psi, and auxiliary gas pressure was 10 psi. Heated vaporizer temperature was 300° C. Both sheath gas and auxiliary gas were nitrogen. Collision gas was nitrogen at a pressure of 1.5 mTorr. Full MS scan parameters were: resolution 70,000; automatic gain control target 1×10^6; […] 50 ms; and m/z scan range 50-1500. The LC-MS system was controlled by Xcalibur 2.2 SP1.48 software, and data acquisition was also controlled by the software.

fibroblasts [1] = assay: DNA damage products 8-OHdG (kit) and γ-H2AX (immunofluorescence) in UV-A irradiated fibroblasts; settings: Fibroblast, light or radiation study, 10-HDA 0.25 mg/mL, UV-A 30 J/cm^2, 24 hours after irradiation, relative to irradiated control without 10-HDA
Description: Fibroblasts were seeded into a 6-well plate at a seeding density of 2.2×10^5 cells/well and incubated overnight in an incubator (37° C., 5% CO2). When the confluence reached 40%-60%, 2 mL of culture medium containing a corresponding concentration of a test substance was added to each well according to different groups. The BC group was a blank control group without any drug intervention and was cultured only in 2 mL normal medium. The NC group was a negative control group without any drug intervention and was cultured only in 2 mL normal medium. The PC group was a positive control group containing VE at a final concentration of 7 μg/mL. The sample group contained 10-HDA at a final concentration of 0.25 mg/mL. After drug incubation for 24 hours, according to test groups, the NC group, PC group, and sample group were subjected to UV-A irradiation at a dose of 30 J/cm^2. After irradiation, the cells were further cultured for 24 hours in an incubator (37° C., 5% CO2). After incubation, cell culture supernatants were collected and tested according to the operation instructions of an 8-OHdG kit. […] Images were acquired under a fluorescence microscope and analyzed using Image-Pro® Plus image processing software.

fibroblasts [2] = assay: Mitochondrial function in UV-A irradiated fibroblasts (mitochondrial ROS, ATP, NADP+/NADPH and JC-1 kits); settings: 10-HDA 0.25 mg/mL, UV-A 30 J/cm^2, 24 hours after irradiation, relative to irradiated control; for inhibition at 250 µg/mL: Fibroblast, light or radiation study
Description: Fibroblasts were seeded into a 6-well plate at a seeding density of 2.2×10^5 cells/well and incubated overnight in an incubator (37° C., 5% CO2). When the confluence reached 40%-60%, 2 mL of culture medium containing a corresponding concentration of a test substance was added to each well according to different groups. The BC group was a blank control group without any drug intervention and was cultured only in 2 mL normal medium. The NC group was a negative control group without any drug intervention and was cultured only in 2 mL normal medium. The PC group was a positive control group containing VE at a final concentration of 7 μg/mL. The sample group contained 10-HDA at a final concentration of 0.25 mg/mL. After drug incubation for 24 hours, according to test grouping, the NC group, PC group, and sample group were subjected to UV-A irradiation at a dose of 30 J/cm^2. After irradiation, the cells were further cultured for 24 hours in an incubator (37° C., 5% CO2). After incubation, mitochondrial functions were assessed according to instructions of a mitochondrial ROS detection kit, a mitochondrial ATP detection kit (Beyotime), a mitochondrial NADP^+/NADPH detection kit (WST-8 method), and a JC-1 mitochondrial membrane potential detection kit.

fibroblasts [3] = assay: Telomere length by qPCR (T/S ratio) in H2O2-stimulated fibroblasts; settings: positive control 1 mg/mL; cells from adult; H2O2 stimulation three days, 2 hours each; five passages
Description: Fibroblasts were seeded into a 6-well plate at a seeding density of 2.2×10^5 cells/well and incubated overnight in an incubator (37° C., 5% CO2). When the confluence reached 40%-60%, 2 mL of culture medium containing a corresponding concentration of a test substance was added to each well according to different groups. The BC group was a blank control group, wherein the cells were derived from back skin of children aged 7-8 years, and no drug intervention was performed during cultivation. The NC group was a negative control group, wherein the cells were derived from back skin of an adult. When the confluence reached 40%-60%, H2O2 stimulation was applied for three consecutive days, with each stimulation lasting 2 hours, and samples were collected for detection after continuous passaging for five passages. The PC group was a positive control group, wherein the cells were derived from back skin of an adult. When the confluence reached 40%-60%, H2O2 stimulation was applied for three consecutive days, with each stimulation lasting 2 hours. During the stimulation period, the cells were cultured in a medium containing cycloastragenol at a final concentration of 1 mg/mL. Samples were collected for detection after continuous passaging for five passages. […] Genomic DNA (gDNA) was obtained using a genomic DNA extraction kit, and telomere length was determined by qPCR using gDNA as a template.

## O=C(O)C=CCCCCCCCO [10-HDA, 10-hydroxy-2-decenoic acid]
3D epidermal model
  ceramide/protein (total ceramide normalized by sample protein amount) increase: 47.64%
  fatty acid/protein (total fatty acid normalized by sample protein amount) increase: 39.0%
  total ceramide increase: 35.37%
  total fatty acid increase: 27.51%
Fibroblasts [1]; immunofluorescence, read-out: γ-H2AX inhibition rate
  inhibition at 250 µg/mL: 47.2%
Fibroblasts [1]; read-out: 8-OHdG inhibition rate
  inhibition at 250 µg/mL: 45.1%
Fibroblasts [2]
  NADPH content increase: 15.13%
  mitochondrial ATP content increase: 56.23%
Fibroblasts [2]; read-out: early apoptosis rate inhibition rate
  inhibition at 250 µg/mL: 12.7%
Fibroblasts [2]; read-out: mitochondrial ROS inhibition rate
  inhibition at 250 µg/mL: 70.7%

## CC(C)(O)[C@@H]1CC[C@](C)([C@H]2[C@@H](O)C[C@@]3(C)[C@@H]4C[C@H](O)[C@H]5C(C)(C)[C@@H](O)CC[C@@]56C[C@@]46CC[C@]23C)O1 [cycloastragenol, reference compound]
Fibroblasts [3]
  telomere length increase relative to the NC group: 43.1%
